Data: PubChem BioAssay (NCI)
Several values for one entry are separate records, joined by “and”; a condition that tells them apart may be missing. Equal entries are not always repeated.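 Cells were grown in 96-well plates and exposed to each compound for 48 hours at five concentrations; endpoints were interpolated linearly between bracketing concentrations, or set to the highest concentration if not reached. Abbreviation: GI50, concentration required for 50% inhibition of growth. Definition used: TGI = concentration required for complete inhibition of growth.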

Experiments:
Assay in all cases: NCI tumour cell line growth inhibition, 48 h
A549 NSCLC = system: A549 NSCLC
A498 renal = system: A498 renal
ACHN renal = system: ACHN renal
UACC-62 melanoma = system: UACC-62 melanoma
SF-295 CNS = system: SF-295 CNS
HCT-116 colon = system: HCT-116 colon
K-562 leukemia = system: K-562 leukemia
OVCAR-8 ovarian = system: OVCAR-8 ovarian
IGROV1 ovarian = system: IGROV1 ovarian
SNB-75 CNS = system: SNB-75 CNS

Row | SMILES | TGI (A549 NSCLC) | TGI (A498 renal) | TGI (ACHN renal) | TGI (UACC-62 melanoma) | TGI (SF-295 CNS) [µM] | TGI (HCT-116 colon) [µM] | TGI (K-562 leukemia) | TGI (OVCAR-8 ovarian) | TGI (IGROV1 ovarian) [µM] | TGI (SNB-75 CNS) | GI50 (A498 renal) [µM] | GI50 (ACHN renal) [µM] | GI50 (SF-295 CNS) [µM] | GI50 (SNB-75 CNS) [µM] | GI50 (A549 NSCLC) [µM] | GI50 (K-562 leukemia) [µM] | GI50 (UACC-62 melanoma) [µM] | GI50 (OVCAR-8 ovarian) [µM] | GI50 (IGROV1 ovarian) [µM] | GI50 (HCT-116 colon) [µM]
1 | CNC(=S)N/N=C/C(C)=N/NC(=S)NC | > 100 µM | > 100 µM | > 100 µM | > 100 µM | > 100 | > 100 | – | – | – | – | – | – | – | – | – | – | – | – | – | –
2 | Cc1sc(/N=C/C2=C(O)CC(C)(C)CC2=O)nc1-c1ccccc1 | > 100 µM | – | > 100 µM | > 100 µM | > 100 | > 100 | > 100 µM | > 100 µM | > 100 | > 100 µM | – | – | – | – | – | – | – | – | – | –
3 | OCCc1ccsc1-c1sc(-c2cc(CCO)c(-c3sc(-c4cc(CCO)c(-c5sccc5CCO)s4)cc3CCO)s2)cc1CCO | 2.2 µM | 3.65 µM | 3 µM | 3.41 µM | 2.7 | 2.33 | – | 3.13 µM | 2.6 | 2.89 µM | – | – | – | – | – | – | – | – | – | –
4 | Cc1ccc(S(=O)(=O)N/N=C2\C=CC3(CC2)C(=O)N(I)c2ccccc23)cc1 (centres undefined) | > 100 µM | > 100 µM | > 100 µM | > 100 µM | > 100 | > 100 | > 100 µM | > 100 µM | – | > 100 µM | – | – | – | – | – | – | – | – | – | –
5 | Cc1ccc(S(=O)(=O)OC[C@@]2(C)CC[C@]3(C)CC[C@]4(C)C(=C3C2)C=C[C@@H]2[C@@]3(C)CCCNC(C)(C)[C@@H]3CC[C@]24C)cc1 | – | 3.13 µM | 3.1 µM | – | 3.29 | – | – | – | – | 3.1 µM | 1.71 | 1.72 | 1.78 | 1.61 | – | – | – | – | – | –
6 | COC1OC2COC(=O)c3cc(O)c(O)c(O)c3-c3c(cc(O)c(O)c3O)C(=O)OC2C(O)C1O (centres undefined) | > 100 µM | – | > 100 µM | 47.1 µM | 37.8 | > 100 | > 100 µM | > 100 µM | > 100 | > 100 µM | – | – | – | – | – | – | – | – | – | –
7 | NC(Cc1ccccc1)C(=O)OCN1C(=O)C2C3C=CC(C2C1=O)C1C(=O)N(COC(=O)C(N)Cc2ccccc2)C(=O)C31 (centres undefined) | > 100 µM | – | > 100 µM | > 100 µM | > 100 | > 100 | 74.6 µM | > 100 µM | > 100 | – | – | – | – | – | – | – | – | – | – | –
8 | S=C(NCc1ccccn1)N/N=C/c1ccccn1 | 1.46 µM | – | 1.1 µM | 4.12 µM | > 96 | < 0.01 | < 0.0108 µM | > 100 µM | – | > 100 µM | – | – | – | – | – | – | – | – | – | –
9 | CCOc1ccc2nc(NC(=O)C(=O)C3C(=O)C(CC4C(=O)c5ccccc5C4=O)C(=O)CC3(C)C)sc2c1 (centres undefined) | > 100 µM | – | > 100 µM | > 100 µM | > 100 | > 100 | – | > 100 µM | > 100 | > 100 µM | – | – | – | – | – | – | – | – | – | –
10 | CC(=O)Oc1ccc2cc(Oc3cc(Cl)c(Cl)cc3Cl)c(=O)oc2c1 | 40.2 µM | 46.7 µM | 50.5 µM | – | 45.7 | 28.1 | 25.9 µM | 34.7 µM | 32.1 | 44.6 µM | – | – | – | – | – | – | – | – | – | –
11 | CN(C)C(=O)C(F)(F)C(c1ccccc1)C1C(=O)N(C)C(=O)N(C)C1=O (centres undefined) | > 100 µM | > 100 µM | > 100 µM | > 100 µM | > 100 | > 100 | > 100 µM | > 100 µM | – | > 100 µM | – | – | – | – | – | – | – | – | – | –
12 | CCCC(=O)Nc1cc(C(=O)N2C[C@H]3C[C@@]34C2=CC(=O)c2[nH]cc(C)c24)n(COC)c1 | 50 µM and 12.8 µM | 1.7 µM and 0.758 µM | 2.5 µM and 0.342 µM | 0.911 µM and 0.289 µM | – | 7.27 | 50 µM and 18.8 µM | 0.343 µM and 0.392 µM | – | 1.45 µM and 0.718 µM | 0.22 | 0.0888 | 0.229 | – | 1.2 | 0.0925 | 0.144 | 0.13 | – | –
13 | CCCCCCCCCCCC1N=C(N)N=C(N)N1c1cccc(Br)c1 (centres undefined) | – | 11.3 µM | 7.05 µM | – | 19.4 | 1.5 | – | 3.31 µM | 2.58 | – | 2.65 | 2.52 | 1.16 | – | – | – | – | 1.73 | 1.14 | 0.216
14 | NC(CCC(=O)c1ccccn1)C(=O)O (centres undefined) | > 100 µM | > 100 µM | > 100 µM | > 100 µM | > 100 | > 100 | – | > 100 µM | > 100 | – | – | – | – | – | – | – | – | – | – | –
15 | CC(=O)N[C@@H](Cc1ccc(O)cn1)C(=O)NCc1ccc(Cl)cc1 | > 100 µM | > 100 µM | > 100 µM | > 100 µM | > 100 | > 100 | > 100 µM | > 100 µM | > 100 | – | – | – | – | – | – | – | – | – | – | –
16 | Nc1nc(Cl)c(CO)c(NCC2(CO)CCC2)n1 | > 100 µM | > 100 µM | > 100 µM | – | > 100 | > 100 | > 100 µM | > 100 µM | > 100 | > 100 µM | – | – | – | – | – | – | – | – | – | –
17 | O=CN1CCN(c2ccc3ccc(=O)[nH]c3n2)CC1 | > 100 µM | – | > 100 µM | > 100 µM | > 100 | > 100 | > 100 µM | > 100 µM | > 100 | > 100 µM | – | – | – | – | – | – | – | – | – | –
